This passage reports IC50 results from ChEMBL document CHEMBL3745696, “Synthesis and cytotoxic activity of novel hexahydropyrrolo[2,3-b]indole imidazolium salts” (Bioorg Med Chem Lett, 2016).

Common to all, as to type: functional, cell-based
The subject of one experiment is A549. The experiment is described as follows: Cytotoxicity against human A549 cells by MTT assay.
In another experiment the test system is MCF7. Nature of the experiment: Cytotoxicity against human MCF7 cells by MTT assay.
Experiment [1] can be described thus: Cytotoxicity against human SMMC7721 cells by MTT assay. Conditions: SMMC-7721. A general note: Formazan colour is commonly taken as a measure of viable cells.
The nature of experiment [2]: Cytotoxicity against human HL60 cells by MTT assay. The following applies: HL-60.
The test system of another experiment is SW480. Nature of the experiment: Cytotoxicity against human SW480 cells by MTT assay.

In the case of `COc1ccc(C(=O)C[n+]2c(C)n(CC(=O)N3CCC4(C)c5ccccc5N(Cc5ccccc5)C34)c3ccccc32)cc1` (stereo not given), the IC50 (commonly the concentration that gives 50% inhibition) in the experiment with A549 was determined as 12.5 µM; with MCF7 it was 6.99 µM; in experiment [1], 8.83 µM; in experiment [2] it was 4.18 µM; in the experiment on SW480, 8.38 µM.
Consider `Cc1n(CC(=O)N2CCC3(C)c4ccccc4N(C)C23)cc[n+]1CC(=O)c1ccccc1` (stereo not given), for which the IC50 (in the experiment with A549; with MCF7; in experiment [1]; in experiment [2]; in the experiment with SW480) was above 20 µM in each case.
On to `CN1c2ccccc2C2(C)CCN(C(=O)Cn3c[n+](CC(=O)c4ccccc4)c4ccccc43)C12` (stereo not given), for which the IC50 (with A549; in the experiment with MCF7; in experiment [1]; in experiment [2]; with SW480) was above 20 µM in each case.
In the case of `COc1ccc(C(=O)C[n+]2cn(CC(=O)N3CCC4(C)c5ccccc5N(Cc5ccccc5)C34)c3cc(C)c(C)cc32)cc1` (stereo not given), the IC50 with A549 was found to be 7.4 µM; in the experiment with MCF7, 2.35 µM; in experiment [1], 5.07 µM; in experiment [2], 1.64 µM; in the experiment on SW480 it was 1.5 µM.
As to `CN1c2ccccc2C2(C)CCN(C(=O)Cn3cc[n+](CC(=O)c4ccccc4)c3)C12` (stereo not given), the IC50 (with A549; with MCF7; in experiment [1]; in experiment [2]; with SW480) was above 20 µM throughout.
In the case of `CN1c2ccccc2C2(C)CCN(C(=O)Cn3c[n+](CC(=O)c4ccc5ccccc5c4)c4ccccc43)C12` (stereo not given), the IC50 was above 20 µM in the experiment on A549; 11 µM with MCF7; above 20 µM in experiment [1]; 5.98 µM in experiment [2]; 8.56 µM in the experiment on SW480.
Turning to `COc1ccc(C(=O)C[n+]2ccn(CC(=O)N3CCC4(C)c5ccccc5N(C)C34)c2)cc1` (stereo not given), the IC50 (in the experiment on A549; in the experiment with MCF7; in experiment [1]; in experiment [2]; in the experiment on SW480) was above 20 µM throughout.
On to `Cc1n(CC(=O)N2CCC3(C)c4ccccc4N(C)C23)cc[n+]1CC(=O)c1ccc(Br)cc1` (stereo not given), for which the IC50 (in the experiment on A549; in the experiment on MCF7; in experiment [1]; in experiment [2]; in the experiment on SW480) was above 20 µM throughout.
With `CN1c2ccccc2C2(C)CCN(C(=O)Cn3cc[n+](CC(=O)c4ccc(Br)cc4)c3)C12` (stereo not given), the IC50 (in the experiment with A549; in the experiment on MCF7; in experiment [1]; in experiment [2]; in the experiment on SW480) was above 20 µM in each case.
For the compound `COc1ccc(C(=O)C[n+]2cn(CC(=O)N3CCC4(C)c5ccccc5N(C)C34)c3ccccc32)cc1` (stereo not given), the IC50 (in the experiment on A549; in the experiment with MCF7; in experiment [1]; in experiment [2]; in the experiment with SW480) was above 20 µM in each case.
For `CN1c2ccccc2C2(C)CCN(C(=O)Cn3c[n+](CC(=O)c4ccc(Br)cc4)c4ccccc43)C12` (stereo not given), the IC50 (in the experiment on A549; in the experiment with MCF7; in experiment [1]; in experiment [2]; in the experiment on SW480) was above 20 µM in each case.
In the case of `CC12CCN(C(=O)Cn3c[n+](Cc4ccc(Br)cc4)c4ccccc43)C1N(Cc1ccccc1)c1ccccc12` (stereo not given), the IC50 in the experiment on A549 is 7.59 µM; with MCF7, 3.87 µM; in experiment [1], 7.53 µM; in experiment [2], 1.42 µM; in the experiment on SW480, 7.43 µM.
`CN1c2ccccc2C2(C)CCN(C(=O)Cn3cc[n+](CC(=O)c4ccc5ccccc5c4)c3)C12` (stereo not given): the IC50 (in the experiment with A549; in the experiment on MCF7; in experiment [1]; in experiment [2]; in the experiment on SW480) was above 20 µM throughout.
Take `Cc1n(CC(=O)N2CCC3(C)c4ccccc4N(Cc4ccccc4)C23)c2ccccc2[n+]1CC(=O)c1ccccc1` (stereo not given): the IC50 in the experiment with A549 came to 14.7 µM; in the experiment with MCF7, 6.35 µM; in experiment [1], 9.28 µM; in experiment [2] it was 4.64 µM; in the experiment with SW480 it was 8.31 µM.
On to `Cc1n(CC(=O)N2CCC3(C)c4ccccc4N(C)C23)c2ccccc2[n+]1CC(=O)c1ccccc1` (stereo not given), for which the IC50 (in the experiment with A549; in the experiment on MCF7; in experiment [1]; in experiment [2]; in the experiment with SW480) was above 20 µM each time.
With `CN1c2ccccc2C2(C)CCN(C(=O)Cn3c[n+](Cc4ccccc4Br)c4ccccc43)C12` (stereo not given), the IC50 in the experiment on A549 was above 20 µM; in the experiment on MCF7, 14 µM; in experiment [1] it was above 20 µM; in experiment [2] it was 5.07 µM; with SW480, above 20 µM.
Take `COc1ccc(C(=O)C[n+]2ccn(CC(=O)N3CCC4(C)c5ccccc5N(C)C34)c2C)cc1` (stereo not given): the IC50 (in the experiment with A549; in the experiment on MCF7; in experiment [1]; in experiment [2]; in the experiment with SW480) was above 20 µM in each case.
With `Cc1cc2c(cc1C)[n+](CC(=O)c1ccccc1)cn2CC(=O)N1CCC2(C)c3ccccc3N(Cc3ccccc3)C12` (stereo not given), the IC50 came out at 6.54 µM in the experiment on A549; 3.51 µM in the experiment with MCF7; 5.78 µM in experiment [1]; 1.47 µM in experiment [2]; 7.09 µM with SW480.
Taken in the same sequence, the figures for `Cc1cc2c(cc1C)[n+](Cc1ccc(Br)cc1)cn2CC(=O)N1CCC2(C)c3ccccc3N(Cc3ccccc3)C12` (stereo not given) were 6.37 µM, 1.72 µM, 3.59 µM, 1.29 µM and 1.41 µM.
Taken in the same sequence, the figures for `Cc1cc2c(cc1C)[n+](Cc1ccc3ccccc3c1)cn2CC(=O)N1CCC2(C)c3ccccc3N(Cc3ccccc3)C12` (stereo not given) were 4.8 µM, 1.68 µM, 2.27 µM, 1.21 µM and 1.76 µM.
For the compound `Cc1ccc(C[n+]2cn(CC(=O)N3CCC4(C)c5ccccc5N(Cc5ccccc5)C34)c3cc(C)c(C)cc32)cc1` (stereo not given), the IC50 was 4.84 µM with A549; 1.86 µM in the experiment on MCF7; 1.74 µM in experiment [1]; 1.23 µM in experiment [2]; 1.77 µM with SW480.
`Cc1n(CC(=O)N2CCC3(C)c4ccccc4N(Cc4ccccc4)C23)c2ccccc2[n+]1CC(=O)c1ccc(Br)cc1` (stereo not given): the IC50 came to 9.87 µM in the experiment on A549; 7.37 µM in the experiment on MCF7; 5.99 µM in experiment [1]; 4.25 µM in experiment [2]; 8.86 µM in the experiment with SW480.
In the same order, the values of `Cc1n(CC(=O)N2CCC3(C)c4ccccc4N(C)C23)cc[n+]1Cc1ccc(Br)cc1` (stereo not given) are above 20 µM, above 20 µM, above 20 µM, above 20 µM and above 20 µM.
Regarding `CC12CCN(C(=O)Cn3c[n+](Cc4ccccc4Br)c4ccccc43)C1N(Cc1ccccc1)c1ccccc12` (stereo not given), the IC50 in the experiment with A549 worked out at 6.76 µM; with MCF7 it was 2.23 µM; in experiment [1] it was 4.69 µM; in experiment [2] it was 1.21 µM; in the experiment on SW480, 6.35 µM.
Take `Cc1ccc(C[n+]2c(C)n(CC(=O)N3CCC4(C)c5ccccc5N(Cc5ccccc5)C34)c3ccccc32)cc1` (stereo not given): the IC50 with A549 is 6.63 µM; in the experiment with MCF7, 1.98 µM; in experiment [1] it was 2.97 µM; in experiment [2] it was 1.25 µM; in the experiment with SW480, 1.62 µM.
Turning to `Cc1n(CC(=O)N2CCC3(C)c4ccccc4N(C)C23)cc[n+]1CC(=O)c1ccc2ccccc2c1` (stereo not given), the IC50 (with A549; in the experiment with MCF7; in experiment [1]; in experiment [2]; in the experiment on SW480) was above 20 µM throughout.
Consider `CN1c2ccccc2C2(C)CCN(C(=O)Cn3c[n+](Cc4ccc(Br)cc4)c4ccccc43)C12` (stereo not given), for which the concentration for half-maximal inhibition (IC50) with A549 is above 20 µM; with MCF7, 8.93 µM; in experiment [1], above 20 µM; in experiment [2], 6.96 µM; in the experiment with SW480, above 20 µM.
On to `CN1c2ccccc2C2(C)CCN(C(=O)Cn3c[n+](Cc4ccc5ccccc5c4)c4ccccc43)C12` (stereo not given), for which the IC50 was 14.1 µM in the experiment on A549; 6.86 µM in the experiment on MCF7; 7.45 µM in experiment [1]; 2.8 µM in experiment [2]; 7.95 µM with SW480.
As for `Cc1n(CC(=O)N2CCC3(C)c4ccccc4N(Cc4ccccc4)C23)c2ccccc2[n+]1Cc1ccccc1Br` (stereo not given), the IC50 with A549 amounted to 7.34 µM; in the experiment on MCF7, 2.5 µM; in experiment [1] it was 2.27 µM; in experiment [2] it was 1.33 µM; in the experiment on SW480, 4.62 µM.
In the same order, the values of `Cc1ccc(C[n+]2cn(CC(=O)N3CCC4(C)c5ccccc5N(C)C34)c3ccccc32)cc1` (stereo not given) are above 20 µM, 9.47 µM, above 20 µM, 5.13 µM and above 20 µM.
Consider `Cc1cc2c(cc1C)[n+](CC(=O)c1ccc(Br)cc1)cn2CC(=O)N1CCC2(C)c3ccccc3N(Cc3ccccc3)C12` (stereo not given), for which the IC50 in the experiment on A549 came out at 8.01 µM; in the experiment on MCF7, 2.78 µM; in experiment [1] it was 6.22 µM; in experiment [2], 1.55 µM; in the experiment with SW480, 1.68 µM.
Regarding `Cc1ccc(C[n+]2ccn(CC(=O)N3CCC4(C)c5ccccc5N(C)C34)c2C)cc1` (stereo not given), the IC50 (with A549; with MCF7; in experiment [1]; in experiment [2]; in the experiment on SW480) was above 20 µM in each case.
Take `Cc1n(CC(=O)N2CCC3(C)c4ccccc4N(Cc4ccccc4)C23)c2ccccc2[n+]1Cc1ccc(Br)cc1` (stereo not given): the IC50 with A549 stood at 7.91 µM; in the experiment on MCF7 it was 2.4 µM; in experiment [1], 5.1 µM; in experiment [2], 1.35 µM; with SW480 it was 6.11 µM.
In the case of `Cc1ccc(C[n+]2cn(CC(=O)N3CCC4(C)c5ccccc5N(Cc5ccccc5)C34)c3ccccc32)cc1` (stereo not given), the half-inhibitory concentration (IC50) worked out at 6.23 µM in the experiment on A549; 2.72 µM with MCF7; 4.98 µM in experiment [1]; 1.2 µM in experiment [2]; 6.57 µM with SW480.
`CN1c2ccccc2C2(C)CCN(C(=O)Cn3cc[n+](Cc4ccc(Br)cc4)c3)C12` (stereo not given): the IC50 (in the experiment on A549; in the experiment on MCF7; in experiment [1]; in experiment [2]; with SW480) was above 20 µM each time.
